Patent publication US5519034A, “Tetraisoquinoline compounds which have useful pharmaceutical utility” (The Boots Company PLC, priority 1991, dated 1996)
Where two headings read alike, the source gives them in different places.

Experiments:
D1 dopamine receptors = molecular target: T1, D1 dopamine receptors (Rattus norvegicus, UniProt P18901); experiment: D1 dopamine receptor binding: inhibition of tritiated SCH 23390 binding, rat striatal samples; parameters: species or system rat (male Charles River CD rats); settings: rat striatum, tritiated SCH 23390, pH 7.4, 37° C., 30 minutes
T1 construct: Striatal samples from the brains of male Charles River CD rats; from tissue; host or cells: striatum of male Charles River CD rats (washed membrane pellet)
Description: (§1) Striatal samples from the brains of male Charles River CD rats weighing between 140-250 g were homogenised in ice-cold 50 mM Tris-HCl buffer (pH 7.4 when measured at 25° C. for D1 binding assays and pH 7.7 when measured at 25° C. for D2 binding assays) and centrifuged for 10 minutes (at 21,000 g when used for D1binding assay and 40,000 g when used for D2binding assays). The pellet was resuspended in the same buffer, again centrifuged and the final pellet stored at -80° C. Before each test the pellet was resuspended in 50 mM Tris-HCl buffer containing 120 mM NaCl, 5 mM KCl, 2 mM CaCl2 and 1 mM MgCl2 at pH 7.4 for the D1 binding assays and at pH 7.7 with the addition of 6 mM ascorbic acid for the D2 binding assays. Aliquots of this suspension were then added to tubes containing the ligand and either the compound under test or buffer. For the D1 binding assays the ligand was tritiated SCH 23390 and the mixture was incubated at 37° C. for 30 minutes before the incubation was terminated by rapid filtration. For the D2 binding assays the ligand was tritiated (S)-sulpiride and the mixture was incubated at 4° C. for 40 minutes before the incubation was terminated by rapid filtration. Non-specific binding was determined experimentally by the addition of saturating concentrations of chloropromazine or spiroperidol for D1 and D2 receptors respectively.
(§2) The filters were washed with ice-cold Tris-HCl buffer and dried. The filters were punched out on to vials containing scintillation fluid and were left for about 20 hours before being counted by scintillation spectrophotometry. Displacement curves were produced over a range of concentrations of the compound under test and the concentration which gave a 50% inhibition of specific binding (IC50) obtained from the curve. The inhibition coefficient Ki was then calculated using the formula [formula] in which [ligand] is the concentration of the tritiated ligand used and KD is the equilibrium dissociation constant for the ligand.
(§3) In some cases Ki values for D2 binding were estimated from single concentration data by the application of the Langmuir adsorption isotherm equation. These cases are indicated by an "E" in the last two columns of Table I. In other cases it was not possible to determine or estimate the Ki and the Ki value is given as greater than (>) that which would result from the application of the above formula to the highest concentration which displaced ≤50% of the ligand.

D2 dopamine receptors = molecular target: T2, D2 dopamine receptors (Rattus norvegicus, UniProt P61169); experiment: D2 dopamine receptor binding: inhibition of tritiated (S)-sulpiride binding, rat striatal samples; parameters: species or system rat (male Charles River CD rats); settings: for Ki: rat striatum, tritiated (S)-sulpiride; for Ki for D2 / Ki for D1: ratio to two significant figures
T2 construct: Striatal samples from the brains of male Charles River CD rats; from tissue; host or cells: striatum of male Charles River CD rats (washed membrane pellet)
Description: as §1, §2, §3

[1] = pH 7.7, 4° C., 40 minutes, > = from highest concentration which displaced ≤50% of the ligand, read-out: Ki for D2 binding
[2] = estimated from single concentration data by Langmuir adsorption isotherm equation, read-out: Ki for D2 binding (marked E)

T1 sequence (P18901 whole entry): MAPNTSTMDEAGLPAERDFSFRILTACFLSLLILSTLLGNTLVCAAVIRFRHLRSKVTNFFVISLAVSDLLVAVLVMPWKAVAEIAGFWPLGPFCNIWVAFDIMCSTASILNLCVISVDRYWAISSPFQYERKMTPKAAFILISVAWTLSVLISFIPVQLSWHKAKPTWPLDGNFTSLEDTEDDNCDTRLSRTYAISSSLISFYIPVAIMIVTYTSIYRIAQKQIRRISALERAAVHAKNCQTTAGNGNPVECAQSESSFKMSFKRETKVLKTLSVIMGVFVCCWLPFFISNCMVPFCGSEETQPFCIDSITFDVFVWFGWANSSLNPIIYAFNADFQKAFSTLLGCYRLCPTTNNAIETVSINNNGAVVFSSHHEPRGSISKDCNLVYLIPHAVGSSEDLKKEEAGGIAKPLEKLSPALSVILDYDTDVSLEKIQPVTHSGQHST
T2 sequence (P61169 whole entry): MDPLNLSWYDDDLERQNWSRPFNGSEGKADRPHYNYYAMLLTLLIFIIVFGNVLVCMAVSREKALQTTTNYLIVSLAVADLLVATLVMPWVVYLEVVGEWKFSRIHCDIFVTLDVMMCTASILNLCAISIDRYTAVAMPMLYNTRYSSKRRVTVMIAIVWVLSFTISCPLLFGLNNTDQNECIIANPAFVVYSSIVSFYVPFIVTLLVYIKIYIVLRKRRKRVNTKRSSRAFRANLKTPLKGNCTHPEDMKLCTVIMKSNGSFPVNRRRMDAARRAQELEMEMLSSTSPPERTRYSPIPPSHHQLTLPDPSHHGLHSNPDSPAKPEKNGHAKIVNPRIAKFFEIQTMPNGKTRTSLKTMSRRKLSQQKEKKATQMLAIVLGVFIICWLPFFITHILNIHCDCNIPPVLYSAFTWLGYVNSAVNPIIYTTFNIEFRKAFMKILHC

SMILES | Ki (D1 dopamine receptors) | Ki (D2 dopamine receptors; [1]) | Ki for D2 / Ki for D1 (D2 dopamine receptors) | Ki (D2 dopamine receptors; [2])
CN1CCc2cc(F)c(O)cc2C1C1(c2ccccc2)CCC1 (stereo not shown) [Example 25, 6-fluoro-7-hydroxy-2-methyl-1-(1-phenylcyclobutyl)-1,2,3,4-tetrahydroisoquinoline] | 19 nM | 5400 µM | 280000 | 
COc1cc2c(cc1O)C(C1(c3ccccc3Cl)CC1)N(C)CC2 (single isomer, unassigned; (+)) [Example 77, (+)-1-[1-(2-chlorophenyl)cyclopropyl]-7-hydroxy-6-methoxy-2-methyl-1,2,3,4-tetrahydroisoquinoline] | 0.28 nM | 0.9 µM | 3200 | 
COc1cc2c(cc1O)C(C1(c3ccccc3)CCCCC1)N(C)CC2 (stereo not shown) [Example 36, 7-hydroxy-6-methoxy-2-methyl-1-(1-phenylcyclohexyl)-1,2,3,4-tetrahydroisoquinoline] | 62 nM | 4.4 µM | 71 | 
CN1CCc2cc(Cl)c(O)cc2C1C1(c2ccccc2)CCC1 (stereo not shown) [Example 52, 6-chloro-7-hydroxy-2-methyl-1-(1-phenylcyclobutyl)-1,2,3,4-tetrahydroisoquinoline] | 17 nM | 5.4 µM | 320 | 
CN1CCc2cc(O)c(O)cc2C1C1(c2ccc(Cl)cc2)CC1 (stereo not shown) [Example 13, 1-[1-(4-chlorophenyl)cyclopropyl]-6,7-dihydroxy-2-methyl-1,2,3,4-tetrahydroisoquinoline] | 44 nM | 3.7 µM | 84 | 
CN1CCc2cc(O)c(O)cc2C1C1(c2ccccc2)CCCCC1 (stereo not shown) [Example 29, 6,7-dihydroxy-2-methyl-1-(1-phenylcyclohexyl)-1,2,3,4-tetrahydroisoquinoline] | 120 nM |  |  | 7 µM
CN1CCc2cc(Br)c(O)cc2C1C1(c2ccccc2)CCC1 (stereo not shown) [Example 20, 6-bromo-7-hydroxy-2-methyl-1-(1-phenylcyclobutyl)-1,2,3,4-tetrahydrosoqunoline] | 31 nM | > 5 µM | > 160 | 
CN1CCc2ccc(O)cc2C1C1(c2ccccc2Cl)CC1 (stereo not shown) [Example 12, 1-(1-(2-chlorophenyl)cyclopropyl)-7-hydroxy-2-methyl-1,2,3,4-tetrahydroisoquinoline] | 1.4 nM | 0.71 µM | 510 | 
CN1CCc2cc(O)c(O)cc2C1C1(c2ccc3ccccc3c2)CCC1 (stereo not shown) [Example 42, 6,7-dihydroxy-2-methyl-1-[1-(2-naphthyl)cyclobutyl]-1,2,3,4-tetrahydroisoquinoline] | 170 nM | 2.5 µM | 15 | 
CN1CCc2cc(F)c(O)cc2C1C1(c2ccccc2Cl)CC1 (single isomer, unassigned; (+)) [Example 62, (+)-1-[1-(2-chlorophenyl)cyclopropyl]-6-fluoro-7-hydroxy-2-methyl-1,2,3,4-tetrahydroisoquinoline] | 0.38 nM | 0.41 µM | 1100 | 
CN1CCc2cc(O)c(O)cc2C1C1(c2ccc(Cl)cc2)CCCC1 (stereo not shown) [Example 14, 1-[1-(4-chlorophenyl)cyclopentyl]-6,7-dihydroxy-2-methyl-1,2,3,4-tetrahydroisoquinoline] | 120 nM | 4.8 µM | 40 | 
CN1CCc2cc(Cl)c(O)cc2C1C1(c2ccccc2Br)CCC1 (stereo not shown) [Example 40, 1-[1-(2-bromophenyl)cyclobutyl]-6-chloro-7-hydroxy-2-methyl-1,2,3,4-tetrahydroisoquinoline] | 0.4 nM | 18 µM | 45000 | 
CN1CCc2ccc(O)cc2C1C1(c2ccccc2Cl)CCC1 (stereo not shown) [Example 47, 1-[1-(2-chlorophenyl)cyclobutyl]-7-hydroxy-2-methyl-1,2,3,4-tetrahydroisoquinoline] | 9.1 nM | 19 µM | 2100 | 
CN1CCc2cc(O)c(O)cc2C1C1(c2ccccc2C#N)CCC1 (stereo not shown) [Example 83, 1-[1-(2-cyanophenyl)cyclobutyl]-6,7-dihydroxy-2-methyl-1,2,3,4-tetrahydroisoquinoline] | 21 nM |  |  | 6.6 µM
